{"source": "ChEMBL document CHEMBL4699535", "about": "“Dolabellane and Clerodane Diterpenoids from the Twigs and Leaves of Casearia kurzii” (J Nat Prod, 2020)", "key": {"[1]": {"test_system": "A549", "assay": "Antiproliferative activity against human A549 cells assessed as reduction in cell viability after 24 to 72 hrs by MTT assay", "assay_type": "functional, cell-based"}, "[2]": {"target": "NAD(P)H dehydrogenase [quinone] 1 (Mus musculus) (UniProt Q64669)", "sequence (Q64669 whole entry)": "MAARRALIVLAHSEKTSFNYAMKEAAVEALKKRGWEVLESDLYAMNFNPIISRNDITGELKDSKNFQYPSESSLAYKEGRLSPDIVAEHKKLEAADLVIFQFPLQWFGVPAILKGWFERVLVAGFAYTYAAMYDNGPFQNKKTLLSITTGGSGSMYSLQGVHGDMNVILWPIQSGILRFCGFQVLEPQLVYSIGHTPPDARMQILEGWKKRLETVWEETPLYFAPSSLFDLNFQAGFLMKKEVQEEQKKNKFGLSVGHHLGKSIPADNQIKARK", "assay": "Induction of quinone reductase in mouse Hepa1c1c7 cells at 100 uM incubated for 24 hrs by MTT based assay", "assay_type": "cell-based", "conditions": "filed as activator; call rule not given here"}, "[3]": {"target": "NAD(P)H dehydrogenase [quinone] 1 (Mus musculus) (UniProt Q64669)", "assay": "Induction of quinone reductase in mouse Hepa1c1c7 cells at 50 uM incubated for 24 hrs by MTT based assay", "assay_type": "cell-based", "conditions": "filed as activator"}, "[4]": {"test_system": "A549", "assay": "Induction of apoptosis in human A549 cells assessed as early apoptotic cells at 10 uM after 24 hrs by Annexin-V FITC/PI staining based flow cytometry analysis (reference value: 3.97 to 4.33%)", "assay_type": "functional"}, "[5]": {"test_system": "A549", "assay": "Induction of cell cycle arrest in human A549 cells assessed as accumulation at G2/M phase at 10 uM after 24 hrs by propodium iodide staining based flow cytometric analysis (reference value: 10.66 to 10.98%)", "assay_type": "functional"}, "[6]": {"test_system": "A549", "assay": "Induction of apoptosis in human A549 cells assessed as early apoptotic cells at 20 uM after 24 hrs by Annexin-V FITC/PI staining based flow cytometry analysis (reference value: 3.97 to 4.33%)", "assay_type": "functional"}, "[7]": {"test_system": "A549", "assay": "Induction of cell cycle arrest in human A549 cells assessed as accumulation at G2/M phase at 20 uM after 24 hrs by propodium iodide staining based flow cytometric analysis (reference value: 10.66 to 10.98%)", "assay_type": "functional"}, "[8]": {"test_system": "A549", "assay": "Induction of cell cycle arrest in human A549 cells assessed as accumulation at G0/G1 phase at 20 uM after 24 hrs by propodium iodide staining based flow cytometric analysis (reference value: 60.74 to 65.6%)", "assay_type": "functional"}, "[9]": {"test_system": "A549", "assay": "Induction of apoptosis in human A549 cells assessed as late apoptotic cells at 10 uM after 24 hrs by Annexin-V FITC/PI staining based flow cytometry analysis (reference value: 9.6%)", "assay_type": "functional"}, "[10]": {"test_system": "A549", "assay": "Induction of apoptosis in human A549 cells assessed as late apoptotic cells at 20 uM after 24 hrs by Annexin-V FITC/PI staining based flow cytometry analysis (reference value: 9.6%)", "assay_type": "functional"}, "[11]": {"test_system": "A549", "assay": "Induction of cell cycle arrest in human A549 cells assessed as accumulation at G2/M phase at 5 uM after 24 hrs by propodium iodide staining based flow cytometric analysis (reference value: 10.66 to 10.98%)", "assay_type": "functional"}, "[12]": {"test_system": "A549", "assay": "Induction of cell cycle arrest in human A549 cells assessed as accumulation at S phase at 20 uM after 24 hrs by propodium iodide staining based flow cytometric analysis (reference value: 23.42 to 28.6%)", "assay_type": "functional"}, "[13]": {"test_system": "A549", "assay": "Induction of cell cycle arrest in human A549 cells assessed as accumulation at S phase at 10 uM after 24 hrs by propodium iodide staining based flow cytometric analysis (reference value: 23.42 to 28.6%)", "assay_type": "functional"}, "[14]": {"test_system": "A549", "assay": "Induction of cell cycle arrest in human A549 cells assessed as accumulation at S phase at 5 uM after 24 hrs by propodium iodide staining based flow cytometric analysis (reference value: 23.42 to 28.6%)", "assay_type": "functional"}, "[15]": {"test_system": "A549", "assay": "Induction of cell cycle arrest in human A549 cells assessed as accumulation at G0/G1 phase at 10 uM after 24 hrs by propodium iodide staining based flow cytometric analysis (reference value: 60.74 to 65.6%)", "assay_type": "functional"}, "[16]": {"test_system": "A549", "assay": "Induction of cell cycle arrest in human A549 cells assessed as accumulation at G0/G1 phase at 5 uM after 24 hrs by propodium iodide staining based flow cytometric analysis (reference value: 60.74 to 65.6%)", "assay_type": "functional"}, "[17]": {"conditions": "Homo sapiens, A549, read-out: IC50"}}}
{"smiles": "C=C/C(C)=C/C[C@]1(C)[C@H](C)C[C@H](OC(=O)[C@@H](C)CC)[C@@]23C(=CC(=O)C[C@@H]12)[C@@H](OC(C)=O)O[C@H]3OC(C)=O", "values": [{"measurement": "IC50", "setting": "[1]; a549", "value": "Not Active"}]}
{"smiles": "C/C1=C\\CC[C@]2(C)O[C@H]2C[C@@H]2C(=O)C=C(C(C)C)[C@@]2(O)CC1", "values": [{"measurement": "IC50", "setting": "[1]; a549", "value": "Not Active"}, {"measurement": "fold change (FC)", "setting": "[2]", "value": 1.5}]}
{"smiles": "C/C1=C\\CC[C@@]2(C)O[C@@H]2C[C@H]2C(=O)C=C(C(C)C)[C@]2(O)CC1", "values": [{"measurement": "IC50", "setting": "[1]; a549", "value": "Not Active"}, {"measurement": "fold change (FC)", "setting": "[2]", "value": 1.9}]}
{"smiles": "C/C1=C/C[C@@H]2[C@@](C)(C/C=C(\\C)CC[C@@H]1O)CC[C@@]2(O)C(C)C", "values": [{"measurement": "IC50", "setting": "[1]; a549", "value": "Not Active"}, {"measurement": "fold change (FC)", "setting": "[2]", "value": 1.5}]}
{"smiles": "CC1=CC[C@H](O)[C@@]2(C)CC[C@@H]3[C@](C)(CC[C@@]3(O)C(C)C)C[C@H]12", "values": [{"measurement": "IC50", "setting": "[1]; a549", "value": "Not Active"}, {"measurement": "fold change (FC)", "setting": "[3]", "value": 1.4}]}
{"smiles": "C=C1CC[C@@H]2[C@@](C)(C/C=C(\\C)CC[C@@H]1O)CC[C@@]2(O)C(C)C", "values": [{"measurement": "IC50", "setting": "[1]; a549", "value": "Not Active"}, {"measurement": "fold change (FC)", "setting": "[2]", "value": 1.5}]}
{"smiles": "C=C/C(C)=C/C[C@]1(C)[C@H](C)C[C@H](OC(=O)CC(C)C)[C@@]23C(=C[C@H](O)C[C@@H]12)[C@@H](OC(C)=O)O[C@H]3OC(C)=O", "values": [{"measurement": "IC50", "setting": "[1]; a549", "value": "Not Active"}]}
{"smiles": "C=C/C(C)=C/C[C@]1(C)[C@H](C)C[C@H](OC(=O)[C@@H](C)CC)[C@@]23C(=C[C@H](O)C[C@@H]12)[C@@H](OC(C)=O)O[C@H]3OC(C)=O", "values": [{"measurement": "IC50", "setting": "[1]; a549", "value": "Not Active"}]}
{"smiles": "CC1=C2C[C@@]3(C)CC[C@@](O)(C(C)C)[C@@H]3CC[C@]2(C)[C@@H](O)CC1", "values": [{"measurement": "IC50", "setting": "[1]; a549", "value": "Not Active"}]}
{"smiles": "C/C1=C\\C[C@@]2(C)CC[C@@](O)(C(C)C)[C@@H]2C/C=C(\\C)[C@@H](O)CC1", "values": [{"measurement": "IC50", "setting": "[1]; a549", "value": "Not Active"}, {"measurement": "fold change (FC)", "setting": "[2]", "value": 1.5}]}
{"smiles": "CC(=O)O[C@H]1O[C@@H](OC(C)=O)[C@]23C1=C[C@H](OC(=O)CC(C)C)C[C@H]2[C@](C)(C/C=C(\\C)C=O)[C@H](C)C[C@@H]3O", "values": [{"measurement": "Activity", "setting": "[4]", "value": 6.04, "unit": "%"}, {"measurement": "Activity", "setting": "[5]", "value": 19.14, "unit": "%"}, {"measurement": "Activity", "setting": "[6]", "value": 13.7, "unit": "%"}, {"measurement": "Activity", "setting": "[7]", "value": 20.56, "unit": "%"}, {"measurement": "Activity", "setting": "[8]", "value": 44.84, "unit": "%"}, {"measurement": "IC50", "setting": "[1]; [17]", "value": 4.4, "unit": "µM"}, {"measurement": "Activity", "setting": "[9]", "value": 9.94, "unit": "%"}, {"measurement": "Activity", "setting": "[10]", "value": 25.27, "unit": "%"}, {"measurement": "Activity", "setting": "[11]", "value": 11.09, "unit": "%"}, {"measurement": "Activity", "setting": "[12]", "value": 34.59, "unit": "%"}, {"measurement": "Activity", "setting": "[13]", "value": 23.87, "unit": "%"}, {"measurement": "Activity", "setting": "[14]", "value": 27.45, "unit": "%"}, {"measurement": "Activity", "setting": "[15]", "value": 56.99, "unit": "%"}]}
{"smiles": "CC(=O)O[C@H]1O[C@@H](OC(C)=O)[C@]23C1=C[C@H](OC(=O)C(C)C)C[C@H]2[C@](C)(C/C=C(\\C)C=O)[C@H](C)C[C@@H]3O", "values": [{"measurement": "IC50", "setting": "[1]; a549", "value": "Not Active"}]}
{"smiles": "C=C/C(C)=C/C[C@]1(C)[C@H](C)C[C@H](OC(=O)C(C)C)[C@@]23C(=C[C@H](O)C[C@@H]12)[C@@H](OC(C)=O)O[C@H]3OC(C)=O", "values": [{"measurement": "IC50", "setting": "[1]; a549", "value": "Not Active"}]}
{"smiles": "C=CC(=C)[C@H](O)C[C@]1(C)[C@H](C)C[C@H](O)[C@@]23C(=C[C@H](OC(=O)CC(C)C)C[C@@H]12)[C@@H](OC(C)=O)O[C@H]3OC(C)=O", "values": [{"measurement": "Activity", "setting": "[4]", "value": 5.44, "unit": "%"}, {"measurement": "Activity", "setting": "[16]", "value": 64.17, "unit": "%"}, {"measurement": "Activity", "setting": "[5]", "value": 13.21, "unit": "%"}, {"measurement": "Activity", "setting": "[6]", "value": 10.41, "unit": "%"}, {"measurement": "Activity", "setting": "[7]", "value": 0, "unit": "%"}, {"measurement": "Activity", "setting": "[8]", "value": 38.95, "unit": "%"}, {"measurement": "IC50", "setting": "[1]; [17]", "value": 4.6, "unit": "µM"}, {"measurement": "Activity", "setting": "[9]", "value": 10.45, "unit": "%"}, {"measurement": "Activity", "setting": "[10]", "value": 35.73, "unit": "%"}, {"measurement": "Activity", "setting": "[11]", "value": 11.21, "unit": "%"}, {"measurement": "Activity", "setting": "[12]", "value": 61.05, "unit": "%"}, {"measurement": "Activity", "setting": "[13]", "value": 31.33, "unit": "%"}, {"measurement": "Activity", "setting": "[14]", "value": 24.62, "unit": "%"}, {"measurement": "Activity", "setting": "[15]", "value": 55.45, "unit": "%"}]}
{"smiles": "CC(=O)O[C@H]1O[C@@H](OC(C)=O)[C@]23C1=C[C@H](OC(=O)CC(C)C)C[C@H]2[C@](C)(C/C=C/C=O)[C@H](C)C[C@@H]3O", "values": [{"measurement": "IC50", "setting": "[1]; a549", "value": "Not Active"}]}
